For 19 compounds, IC50 results are on record in ChEMBL document CHEMBL3621115, “Discovery of 6-phenylimidazo[2,1-b]thiazole derivatives as a new type of FLT3 inhibitors” (Bioorg Med Chem Lett, 2015).

Structures are written as SMILES.

The subject of one experiment is HeLa. As to the kind of experiment: Cytotoxicity against human HeLa cells assessed as cell viability after 72 hrs by MTT assay. The class given is functional, cell-based.
Experiment [1] addresses T1, Receptor-type tyrosine-protein kinase FLT3 (Homo sapiens, UniProt P36888).
T1 sequence (P36888 whole entry): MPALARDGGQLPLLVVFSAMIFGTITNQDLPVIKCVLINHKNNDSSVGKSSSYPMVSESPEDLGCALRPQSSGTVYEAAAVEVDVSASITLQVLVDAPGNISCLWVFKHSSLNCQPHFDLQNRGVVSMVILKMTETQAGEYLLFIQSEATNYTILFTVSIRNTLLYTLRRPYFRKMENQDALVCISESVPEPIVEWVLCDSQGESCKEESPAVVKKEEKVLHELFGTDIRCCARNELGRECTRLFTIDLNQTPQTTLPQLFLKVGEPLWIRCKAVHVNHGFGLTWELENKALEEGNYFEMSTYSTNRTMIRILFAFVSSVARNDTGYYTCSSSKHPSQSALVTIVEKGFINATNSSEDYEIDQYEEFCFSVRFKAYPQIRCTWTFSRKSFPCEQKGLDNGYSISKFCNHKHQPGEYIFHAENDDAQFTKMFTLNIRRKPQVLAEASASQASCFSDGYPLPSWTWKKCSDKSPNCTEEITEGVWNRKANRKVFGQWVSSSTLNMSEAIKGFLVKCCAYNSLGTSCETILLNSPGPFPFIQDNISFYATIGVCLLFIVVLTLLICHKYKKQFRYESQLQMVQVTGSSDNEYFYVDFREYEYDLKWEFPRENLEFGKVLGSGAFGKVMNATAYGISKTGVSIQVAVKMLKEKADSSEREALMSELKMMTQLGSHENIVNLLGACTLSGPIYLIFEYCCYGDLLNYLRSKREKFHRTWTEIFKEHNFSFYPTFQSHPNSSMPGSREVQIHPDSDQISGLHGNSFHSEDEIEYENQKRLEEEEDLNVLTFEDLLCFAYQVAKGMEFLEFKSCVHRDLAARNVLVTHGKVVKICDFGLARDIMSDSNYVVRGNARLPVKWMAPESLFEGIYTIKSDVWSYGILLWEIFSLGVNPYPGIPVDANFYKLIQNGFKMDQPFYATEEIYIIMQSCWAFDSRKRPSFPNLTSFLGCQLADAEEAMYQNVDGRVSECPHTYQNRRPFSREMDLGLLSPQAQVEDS
As to the kind of experiment: Inhibition of human recombinant Flt3.

Another experiment deals with MV4-11. As to the kind of experiment: Cytotoxicity against human MV4-11 cells assessed as cell viability after 72 hrs by MTT assay. Type of experiment: functional, cell-based. Particulars: MV4-11, 72 h.

For `CN(C)CCNC(=O)c1csc2nc(-c3ccc(NC(=O)Nc4cc(C(C)(C)C)on4)cc3)cn12`, the half-maximal inhibitory concentration (IC50) in the experiment on HeLa amounted to 20 µM; in experiment [1], 0.022 µM; with MV4-11 it was 0.0097 µM.
In the case of `CC(C)(C)c1cc(NC(=O)Nc2ccc(-c3cn4c(C(=O)NCCN5CCOCC5)csc4n3)cc2)no1`, the IC50 in the experiment on HeLa is greater than 20 µM; in the experiment with MV4-11, 0.0163 µM.
Take `C=CC(=O)Nc1cccc(-c2cn3c(C(=O)OCC)csc3n2)c1`: the IC50 in the experiment with HeLa and in the experiment with MV4-11 was greater than 20 µM in each case.
Take `CCOC(=O)c1csc2nc(-c3ccc(NC(=O)CC)cc3)cn12`: the IC50 in the experiment on HeLa is greater than 20 µM; in the experiment with MV4-11 it was 9.52 µM.
Turning to `CC(C)(C)c1cc(NC(=O)Nc2ccc(-c3cn4c(C(=O)OCCN5CCOCC5)csc4n3)cc2)no1`, the values for the IC50 in the experiment with HeLa and with MV4-11 were greater than 20 µM and 0.146 µM, respectively.
For `CCOC(=O)c1csc2nc(-c3ccc(NC(=O)c4ccco4)cc3)cn12`, the IC50 in the experiment with HeLa is greater than 20 µM; in the experiment on MV4-11 it was 9.92 µM.
The matching figures for `C=CC(=O)Nc1ccc(-c2cn3c(C(=O)OCC)csc3n2)cc1`: greater than 20 µM and 2.93 µM.
The matching figures for `CCOC(=O)c1csc2nc(-c3cccc(NC(=O)CCl)c3)cn12`: 20 µM and 17.7 µM.
The matching figures for `CCOC(=O)c1csc2nc(-c3cccc(NC(=O)c4ccco4)c3)cn12`: greater than 20 µM and greater than 20 µM.
For `CCOC(=O)c1csc2nc(-c3ccc(NC(=O)CCl)cc3)cn12`, the figures for the IC50 in the experiment on HeLa and in the experiment on MV4-11 were greater than 20 µM and 9.07 µM, respectively.
For `CCOC(=O)c1csc2nc(-c3ccc(NC(=O)Nc4ccccc4)cc3)cn12`, the IC50 in the experiment with HeLa and with MV4-11 was greater than 20 µM in each case.
In the case of `CC(C)(C)c1cc(NC(=O)Nc2ccc(-c3cn4c(C(=O)NCCO)csc4n3)cc2)no1`, the values for the half-maximal inhibitory concentration (IC50) in the experiment with HeLa and with MV4-11 were greater than 20 µM and 0.0156 µM, respectively.
For `CCOC(=O)c1csc2nc(-c3ccc(NC(=O)Nc4cc(C(C)(C)C)on4)cc3)cn12`, the IC50 in the experiment on HeLa is greater than 20 µM; with MV4-11, 0.274 µM.
Consider `CC(C)(C)c1cc(NC(=O)Nc2ccc(-c3cn4c(C(=O)NCCS(C)(=O)=O)csc4n3)cc2)no1`, for which the figures for the IC50 (in the experiment with HeLa; in experiment [1]; with MV4-11) were greater than 20 µM, 0.095 µM and 0.0049 µM, respectively.
Take `CCOC(=O)c1csc2nc(-c3ccc(NC(=O)Nc4ccc(Br)cn4)cc3)cn12`: the IC50 is greater than 20 µM with HeLa and 2.44 µM with MV4-11.
As to `CCOC(=O)c1csc2nc(-c3ccc(NS(=O)(=O)c4ccc(C)cc4)cc3)cn12`, the IC50 in the experiment with HeLa and in the experiment on MV4-11 was greater than 20 µM throughout.
Consider `CNC(=O)c1cc(Oc2ccc(NC(=O)Nc3ccc(Cl)c(C(F)(F)F)c3)cc2)ccn1` [SORAFENIB], for which the IC50 in the experiment with HeLa came to 5.23 µM; with MV4-11 it was 0.007 µM.
As to `CCCS(=O)(=O)Nc1ccc(-c2cn3c(C(=O)OCC)csc3n2)cc1`, the IC50 with HeLa and with MV4-11 was greater than 20 µM throughout.
Turning to `CCOC(=O)c1csc2nc(-c3cccc(NC(=O)CC)c3)cn12`, the IC50 in the experiment with HeLa and with MV4-11 was greater than 20 µM throughout.
